Experiment: Linear sweep voltammetry with rotating disc electrode, inhibitors in electrolyte solution
Conditions: for Current (A) @ −800 mV: 10 ppm inhibitor solution in 5% NaCl-PBS pH 7, copper rotating disc electrode 1000 rpm, LSV; for IE (inhibitor efficiency, Equation 1): 10 ppm inhibitor solution, from current at -800 mV versus blank
Method: Linear sweep voltammetry (LSV) and chronoamperometry were used to evaluate the performance of the thio-containing corrosion inhibitors as electroactive cathodic-thio compounds. The LSV experiments were performed with a rotating disc electrode (RDE). The rotating disc electrode technique provides certain benefits in measurement sensitivity because the technique indicates current at steady state with a kinetic flow over the electrode rather than a static measurement in solution (FIG. 1).
Inhibitor performance was measured based on the ability of the compound to prevent the oxygen reduction reaction in electrolyte using a rotating disc electrode. If current values were closer to zero then the inhibitor was considered to be appropriate because the oxygen reduction reaction, which is an indication of corrosion, was sequestered or stopped. Solutions of known concentration (e.g., containing 10 ppm inhibitor) were used to compared inhibitors. Inhibitor efficiency (IE), is calculated using Equation 1 (IE corrects for contributions not attributable to the inhibitor (e.g., electrolyte)).
Inhibitor Efficiency=(iinhibitor−iblank)/iblank (Equation 1)
Performance of different inhibitors (10 ppm solutions) was evaluated by measuring current value (A) at −800 mV and determining inhibitor efficiency, the results of which are shown in Table 5.
A 5% (wt/wt) sodium chloride solution (that is, electrolyte system A of Table 7) was selected to simulate a highly corrosive environment and potentially accelerate the corrosion. The electrolyte was buffered to eliminate changes in pH from effecting inhibitor performance measurements. A pH of 7 was selected because it was similar to seawater.
The 5% (wt/wt) (0.9 M) sodium chloride electrolyte solution was generated by adding reagent grade sodium chloride to <18 M·cm resistivity to deionized water (52.6 gm NaCl to 1 liter water). The solution was then buffered to neutral pH 7 with phosphate buffered saline tablets from Sigma Aldrich-(P4417-100TAB), 1 tablet per 200 ml of solution Inhibitors were dissolved in an 5% sodium chloride electrolyte buffered with phosphate buffered saline to maintain the pH at 7. Ten parts per million (10 ppm) solutions were generated by taking an aliquot of solutions with a higher known inhibitor concentration and diluting to make a 10 ppm solution. In most cases the higher concentration target was 50 ppm. The initial solutions were generated by adding 0.050 gm of inhibitor in a 5% NaCl buffered electrolyte in a one liter volumetric flask. Not all of the inhibitor dissolved, so the solution was filtered to calculate the solubility and the actual concentration. The solutions were stirred overnight with a stir bar and then filtered using a pre-weighed, 4.7 cm diameter, 1.0 micron pore size glass fiber filters (Whatman Grade GF/B 1821-047) and a Millipore glass filter funnel. The glass filter and clamp funnel was an improvement to previous filter methods that utilized a Buchner funnel and paper filters. After the filtrate was collected, the funnel and filter paper were rinsed thoroughly with deionized water to ensure that no electrolyte salts were trapped in the filter and that residual solids on the sides of the filter funnel were collected. The filter with solids was dried over night in an approximately 120° C. oven, allowed to come to room temperature in a desiccator, and weighed. The actual solution concentration was calculated based on the actual inhibitor dissolved. Concentration calculations also accounted for residual salts that are sometimes still present in the filter. These were measured by running a blank. An aliquot was taken of the 50 ppm solution and a final 10 ppm solution generated. […]

Sc1nsc(S)n1 [1,2,4 DMcT, 1,2,4-Thiadiazole-3,5-dithiol]
Current (A) @ −800 mV: −1.53 × 10^−4 A
IE (inhibitor efficiency, Equation 1): 0.70

Sc1nnc([S][Al]([S]c2nnc(S)s2)[S]c2nnc(S)s2)s1 [1:3AlDMcT (acid), [Al:2,5-dimercapto-1,3,4-thiadiazole (1:3)] (acid)]
Current (A) @ −800 mV: −2.83 × 10^−4 A
IE (inhibitor efficiency, Equation 1): 0.44

Sc1nnc([S][Al]([S]c2nnc(S)s2)[S]c2nnc(S)s2)s1 [1:3AlDMcT, [Al:2,5-dimercapto-1,3,4-thiadiazole (1:3)]]
Current (A) @ −800 mV: −2.25 × 10^−4 A
IE (inhibitor efficiency, Equation 1): 0.55

N1=C2SSc3nnc(s3)SSC(=N1)S2 [BDTD, Bis-[2,5-dithio-1,3,4-thiadiazole]]
Current (A) @ −800 mV: −3.00 × 10^−4 A
IE (inhibitor efficiency, Equation 1): 0.40

Sc1nnc(SSc2nnc(S)s2)s1 [Vanlube 829, 5,5′-Dithiobis(1,3,4-Thiadiazole-2(3H)-thione)]
Current (A) @ −800 mV: −2.68 × 10^−4 A
IE (inhibitor efficiency, Equation 1): 0.47

[Al:2,5-dimercapto-1,3,4-thiadiazole (3:1)] [3:1 AlDMcT]
Current (A) @ −800 mV: −2.59 × 10^−4 A
IE (inhibitor efficiency, Equation 1): 0.49

Source: patent US20160168724A1, “POLYVINYLBUTYRAL COATING CONTAINING THIOL CORROSION INHIBITORS” (The Boeing Company, priority 2014, published 2016)
